pIC50: −log10 of the molar value. Like-named read-outs stand apart in the source and are kept apart here.

Experiment [1] deals with stimulated primary human T cells. The experiment can be described thus: T cell proliferation assay (rescue of proliferation in the presence of ATP). The experiment is classed as cell-based. The protocol: The aim of this study was to determine the potency of equilibrative nucleoside transporter 1 (ENT1) inhibitors to rescue proliferation by stimulated primary human T cells incubated in the presence of 100 uM Adenosine triphosphate (ATP), in baseline conditions (condition A) or in the presence of various proteins known to bind small molecules (condition B)
Condition B: X-VIVO15, 2% Human Serum Albumine (HSA) and 0.1% α-1-Acid Glycoprotein (AAG)
Cryopreserved purified human CD3+ T cells were thawed and washed twice with RPMI1640 medium, UltraGlutamine containing 10% hiFBS.
Cells were suspended in PBS containing 10% hiFBS. Cells were stained with CFSE by adding 2 μM solution in PBS, to get a final 1 μM CFSE solution. Cells were incubated while rotating for 5 minutes. Reaction was stopped by adding PBS with 10% FBS and cells were centrifuged for 5 minutes at 1500 rpm.
Cells were resuspended at 1.6×10^6 cells/mL, either in X-VIVO15 medium or in 4% Human Serum Albumin and 0.2% α-1-Acid Glycoprotein. 50 μL of cell suspension (8×10^4 T cells) was added to wells of sterile round-bottom 96-well plates. Cells were activated by adding 50 μL of anti-CD3 anti-CD28 coated microbeads, suspended either in XVIVO-15 medium or in 4% HSA and 0.2% α-1-Acid Glycoprotein, at a ratio of one microbead per two cells.
Serial dilutions of the ENT1 inhibitors were prepared in X-VIVO15 from 10 mM stock solutions in DMSO, and 50 μL was added to the wells.
ATP powder was diluted in X-VIVO15, and 50 μL of this compound was added to the wells to reach a final assay concentration of 100 μM. Final volume of 200 μL.
The experiments were also performed in 384 well plates—all volumes reduced by a factor of 4 (12.5 μL) with a final volume of 50 μL.
Experiments were performed in duplicate. The cells were placed in a 37° C. humidified tissue culture incubator with 5% CO2 for 72 hours for 96 well plates, 96 hours for 384 well plates After 72 or 96 hours, proliferation was measured determined by CFSE dilution via flow cytometry.

Experiment [2] concerns the target T1, human ENT1 (Homo sapiens, UniProt Q99808).
T1 construct: JAR cells expressing ENT1 were bought from ATCC® (HTB-144TM); host or cells: JAR cells (human choriocarcinoma line, own knowledge)
T1 sequence (Q99808 1-456): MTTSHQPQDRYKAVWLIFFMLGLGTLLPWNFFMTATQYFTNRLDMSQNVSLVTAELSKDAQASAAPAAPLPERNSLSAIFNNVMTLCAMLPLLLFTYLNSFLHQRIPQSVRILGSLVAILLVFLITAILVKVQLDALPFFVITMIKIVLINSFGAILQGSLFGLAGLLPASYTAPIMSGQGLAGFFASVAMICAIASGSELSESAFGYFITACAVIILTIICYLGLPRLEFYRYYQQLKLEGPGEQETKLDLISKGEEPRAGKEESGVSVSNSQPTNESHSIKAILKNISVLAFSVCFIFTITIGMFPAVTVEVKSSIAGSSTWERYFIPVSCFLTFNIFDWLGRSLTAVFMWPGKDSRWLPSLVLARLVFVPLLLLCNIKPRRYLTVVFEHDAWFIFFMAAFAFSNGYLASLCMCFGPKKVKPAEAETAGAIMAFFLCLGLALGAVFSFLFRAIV
The experiment can be described thus: ENT1 binding assay (competition with Sahenta-DY647). The settings on record: JAR cells expressing ENT1; competition with Sahenta-DY647 (100 nM); 4° C. The protocol:
The present assay aims at showing that the compounds of the present disclosure can bind to human ENT1. The principle of the assay is a competition between the compounds of this present disclosure and Sahenta-DY647, an ENT1 inhibitor that emits fluorescence (Ex=630 nm, Em=670 nm). By measuring the fluorescence at the end of the assay we could assess the binding potency of the compounds of the present disclosure.
JAR cells expressing ENT1 were bought from ATCC® (HTB-144TM). Cells were cultured in RPMI 1640 medium (LONZA®, #BE12-702F/U1) supplemented with 10% FBS (GIBCO®, #10270-106), 10 mM Hepes (LONZA®, #BE17-737E), 1 mM Sodium Pyruvate (LONZA®, #BE13-115E) and 2% Penicillin/Streptomycin (LONZA®, #DE17-603E) at 37° C. and 5% CO2. The assay was conducted on the following buffer: HBSS (LONZA®, #LO-527F) supplemented with 10 mM Hepes (LONZA®, #BE17-737E) and 0.1% BSA (Miltenyi®, #130-091-376) on the day of the assay.
JAR cells were resuspended in the described buffer. Compounds of the present disclosure and Sahenta-DY647 were diluted 200× in the described buffer.
A total of 50 000 cells were pre-incubated for 30 min at 4° C. with the compounds of the present disclosure before adding the corresponded IC90 of Sahenta-DY647 (100 nM) and incubate once more for 30 min at 4° C. The total volume of the reaction was 100 μL (50 μL of cells, 25 μL of the compounds of the present disclosure and 25 μL of Sahenta-DY647) in a 96 well plate, U-bottom (Greiner®, #650-180). The plates were washed 2× by centrifugation (4 min, 400 rcf at 4° C.) in the same buffer. Cells were re-suspended in 70 μL of the buffer and 50 μL was transferred to a Black 384 Optiplate (PerkinElmer®, #6007279). Fluorescence (Ex=630 nm, Em=670 nm) was acquired on a Spectramax i3x (Molecular Devices®).

Setting [3] is: Condition B: X-VIVO15, 2% Human Serum Albumine (HSA) and 0.1% α-1-Acid Glycoprotein (AAG), 100 μM ATP, read-out: (2) T Cell proliferation (Condition B) IC50.
The mark [4] stands for this setting: Homo sapiens, Condition A: X-VIVO15, 100 μM ATP, read-out: T Cell proliferation (Condition A) IC50.

Regarding `COc1cc(C(=O)OC2CCCOc3cc(cc(OC)c3OC)C(=O)NCCC(=O)N3CCCN(CC2)CC3)cc(OC)c1OC` (stereo not drawn) [Compound 21], the pIC50 in experiment [1] (setting [3]) is 7.70 to 9.00; in experiment [1] (setting [4]), greater than 10.00; in experiment [2], 7.70 to 9.00.

`COc1cc2cc(c1OC)OCCCC(Oc1nccc3ccccc13)CCN1CCCN(CCCOC2=O)CC1` (stereo not drawn) [Compound 23]: the figures for the pIC50 in experiment [1] (setting [3]), in experiment [1] (setting [4]) and in experiment [2] were 6.30 to 7.70, 7.70 to 9.00 and 7.70 to 9.00, respectively.

In the case of `COc1cc2cc(c1OC)OCCCC(Oc1nncc3ccccc13)CCN1CCCN(CCCOC2=O)CC1` (stereo not drawn) [Compound 24], the figures for the pIC50 in experiment [1] (setting [3]), in experiment [1] (setting [4]) and in experiment [2] were 6.30 to 7.70, greater than 10.00 and 7.70 to 9.00, respectively.

In the case of `COc1cc2cc(c1OC)OCCCC(n1ncc(-c3ccccc3)n1)CCN1CCCN(CCCOC2=O)CC1` (stereo not drawn) [Compound 28], the figures for the pIC50 in experiment [1] (setting [3]), in experiment [1] (setting [4]) and in experiment [2] were 6.30 to 7.70, greater than 9.00 and 7.70 to 9.00, respectively.

`COc1cc2cc(c1OC)OCCCC(n1cc(-c3ccccc3)cn1)CCN1CCCN(CCCOC2=O)CC1` (stereo not drawn) [Compound 29]: the pIC50 is 6.30 to 7.70 in experiment [1] (setting [3]), greater than 9.00 in experiment [1] (setting [4]) and 7.70 to 9.00 in experiment [2].

On to `COc1cc(C(=O)OC2CCCOc3cc(cc(OC)c3OC)C(=O)NCCCN3CCN(CC2)CC3=O)cc(OC)c1OC` (stereo not drawn) [Compound 30], for which the pIC50 in experiment [1] (setting [3]) was 6.30 to 7.70; in experiment [1] (setting [4]), greater than 9.00; in experiment [2], 7.70 to 9.00.

`COc1cc(C(=O)OC2CCCOc3cc(cc(Cl)c3Cl)C(=O)NCCCN3CCCN(CC2)CC3)cc(OC)c1OC` (stereo not drawn) [Compound 33]: the pIC50 in experiment [1] (setting [3]) was less than 6.30; in experiment [1] (setting [4]) it was 7.70 to 9.00; in experiment [2] it was 6.30 to 7.70.

For the compound `COc1cc(C(=O)OC2CCCOc3cc(cc(OC)c3OC)-c3cn(nn3)CCCN3CCCN(CC2)CC3)cc(OC)c1OC` (stereo not drawn) [Compound 37], the pIC50 in experiment [1] (setting [3]) is 6.30 to 7.70; in experiment [1] (setting [4]) it was greater than 9.00; in experiment [2], 7.70 to 9.00.

On to `COc1cc2cc(c1OC)OCCCC(OC(=O)NCC(=O)N1CCOCC1)CCN1CCCN(CCCNC2=O)CC1` (stereo not drawn) [Compound 40], for which the pIC50 in experiment [1] (setting [3]), in experiment [1] (setting [4]) and in experiment [2] was 6.30 to 7.70 each time.

`COc1cc(C(=O)OC2CCCOc3cc(cc(OC)c3OC)COCCN(C)C3CCN(CC2)CC3)cc(OC)c1OC` (stereo not drawn) [Compound 41]: the pIC50 is 6.30 to 7.70 in experiment [1] (setting [3]), greater than 9.00 in experiment [1] (setting [4]) and 7.70 to 9.00 in experiment [2].

As for `COc1cc(C(=O)OC2CCCOc3cc(cc(OC)c3OC)COCCC3CCN(CC3)CC2)cc(OC)c1OC` (stereo not drawn) [Compound 42], the pIC50 was 6.30 to 7.70 in experiment [1] (setting [3]), greater than 9.00 in experiment [1] (setting [4]) and 7.70 to 9.00 in experiment [2].

On to `COc1cc(C(=O)OC2CCCOc3cc(cc(OC)c3OC)COCCOCCN(C)CC2)cc(OC)c1OC` (stereo not drawn) [Compound 43], for which the values for the pIC50 in experiment [1] (setting [3]), in experiment [1] (setting [4]) and in experiment [2] were 6.30 to 7.70, greater than 9.00 and 7.70 to 9.00, respectively.

In the case of `COc1cc(C(=O)OC2CCCOc3cc(cc(OC)c3OC)COCCN3CCCN(CC2)CC3)cc(OC)c1OC` (stereo not drawn) [Compound 44], the pIC50 is 6.30 to 7.70 in experiment [1] (setting [3]), greater than 10.00 in experiment [1] (setting [4]) and 7.70 to 9.00 in experiment [2].

Take `COc1cc(C(=O)OC2CCCOc3cc(cc(OC)c3OC)CCCCS(=O)(=O)N3CCCN(CC2)CC3)cc(OC)c1OC` (stereo not drawn) [Compound 47]: the results for the pIC50 in experiment [1] (setting [3]), in experiment [1] (setting [4]) and in experiment [2] were 7.70 to 9.00, greater than 9.00 and 7.70 to 9.00, respectively.
